# Results reported in ChEMBL document CHEMBL4303773 (Nature, 2020).
# Columns and labels:
# [1] = target: Voltage-gated inwardly rectifying potassium channel KCNH2 (Homo sapiens, UniProt Q12809)
# Description: hERG binding assays: Displacement of [3H]-Dofetilide (5 nM final) from hERG membranes obtained from HEK293 cells
# [2] = target: T1, Muscarinic acetylcholine receptor M2 (Homo sapiens, UniProt P08172); assay: Activity of compound against Muscarinic acetylcholine receptor M2 (CHRM2) by displacement of 3H-QNB
# T1 sequence (P08172 whole entry): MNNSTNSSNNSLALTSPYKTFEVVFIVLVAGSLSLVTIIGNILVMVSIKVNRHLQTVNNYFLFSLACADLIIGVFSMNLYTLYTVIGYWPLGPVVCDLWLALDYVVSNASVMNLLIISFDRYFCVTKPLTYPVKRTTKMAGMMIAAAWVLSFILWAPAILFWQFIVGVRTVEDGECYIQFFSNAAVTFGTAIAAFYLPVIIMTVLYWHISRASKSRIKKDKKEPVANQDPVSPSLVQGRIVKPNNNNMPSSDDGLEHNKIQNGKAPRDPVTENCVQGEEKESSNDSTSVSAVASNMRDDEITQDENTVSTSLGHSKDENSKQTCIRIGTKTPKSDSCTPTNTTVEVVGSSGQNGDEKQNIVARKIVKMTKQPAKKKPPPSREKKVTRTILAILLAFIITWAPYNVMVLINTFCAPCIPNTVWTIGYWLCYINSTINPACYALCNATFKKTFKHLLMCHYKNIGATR
# [3] = target: T2, Muscarinic acetylcholine receptor M1 (Homo sapiens, UniProt P11229)
# T2 sequence (P11229 whole entry): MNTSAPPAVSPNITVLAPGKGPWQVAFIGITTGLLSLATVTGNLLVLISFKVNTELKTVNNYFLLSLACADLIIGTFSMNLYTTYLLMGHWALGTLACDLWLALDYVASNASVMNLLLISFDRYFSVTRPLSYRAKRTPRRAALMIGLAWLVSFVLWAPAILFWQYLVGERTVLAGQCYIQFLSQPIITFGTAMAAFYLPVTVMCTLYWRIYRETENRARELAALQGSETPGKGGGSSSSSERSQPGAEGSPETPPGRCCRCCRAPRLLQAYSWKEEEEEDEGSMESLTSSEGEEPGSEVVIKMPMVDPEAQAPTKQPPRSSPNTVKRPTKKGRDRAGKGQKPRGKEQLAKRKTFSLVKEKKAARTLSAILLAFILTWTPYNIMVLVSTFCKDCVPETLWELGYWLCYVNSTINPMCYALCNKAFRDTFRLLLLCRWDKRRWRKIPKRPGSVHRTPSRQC
# Sequence of Voltage-gated inwardly rectifying potassium channel KCNH2 (Q12809 whole entry): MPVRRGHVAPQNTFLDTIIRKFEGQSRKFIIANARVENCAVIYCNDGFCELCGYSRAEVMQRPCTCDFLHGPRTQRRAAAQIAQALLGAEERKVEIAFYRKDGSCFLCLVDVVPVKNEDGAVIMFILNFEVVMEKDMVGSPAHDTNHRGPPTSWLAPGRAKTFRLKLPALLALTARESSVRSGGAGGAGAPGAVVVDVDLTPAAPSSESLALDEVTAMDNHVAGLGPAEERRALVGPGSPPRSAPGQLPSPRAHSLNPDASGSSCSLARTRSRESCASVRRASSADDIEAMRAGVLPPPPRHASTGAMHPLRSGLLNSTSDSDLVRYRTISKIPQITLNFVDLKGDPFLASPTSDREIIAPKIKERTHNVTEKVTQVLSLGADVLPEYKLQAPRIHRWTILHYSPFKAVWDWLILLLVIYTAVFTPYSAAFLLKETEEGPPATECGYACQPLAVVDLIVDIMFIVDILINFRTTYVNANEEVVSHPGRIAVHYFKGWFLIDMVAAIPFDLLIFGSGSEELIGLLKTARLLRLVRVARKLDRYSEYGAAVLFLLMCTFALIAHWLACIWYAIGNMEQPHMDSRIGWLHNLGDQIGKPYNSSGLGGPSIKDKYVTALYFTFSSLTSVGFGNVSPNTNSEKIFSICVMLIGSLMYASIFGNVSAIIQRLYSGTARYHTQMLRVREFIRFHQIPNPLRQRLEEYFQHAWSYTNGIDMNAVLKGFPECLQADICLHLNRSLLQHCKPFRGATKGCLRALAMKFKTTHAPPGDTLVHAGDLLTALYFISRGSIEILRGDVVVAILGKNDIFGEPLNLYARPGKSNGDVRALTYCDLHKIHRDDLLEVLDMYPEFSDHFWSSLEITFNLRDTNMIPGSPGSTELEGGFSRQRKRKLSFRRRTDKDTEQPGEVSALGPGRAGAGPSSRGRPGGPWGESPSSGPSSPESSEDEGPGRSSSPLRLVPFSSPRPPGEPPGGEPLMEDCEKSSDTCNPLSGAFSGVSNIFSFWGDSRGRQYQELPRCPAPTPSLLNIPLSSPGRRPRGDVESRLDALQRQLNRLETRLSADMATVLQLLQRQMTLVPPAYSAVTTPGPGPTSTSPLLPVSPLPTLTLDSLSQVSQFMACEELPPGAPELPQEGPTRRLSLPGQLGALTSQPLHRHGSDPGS
smiles,measurement,setting,value
CCCN1CCC=C(c2cc(-c3ccc(C)cc3)no2)C1,Ki,[1],10 µM
same,Ki,[2],24 µM
same,Ki,[3],> 31.6 µM
